From paper PMC3480357, “Fragment-Hopping-Based Discovery of a Novel Chemical Series of Proto-Oncogene PIM-1 Kinase Inhibitors” (PLoS ONE, 2012)
Where two headings read alike, the source gives them in different places.

Legend:
Format in all cases: biochemical
DYRK1A = DYRK1A (Homo sapiens, UniProt Q13627); test: ProQinase kinase panel, % inhibition at fixed concentration; conditions: for inhibition at 10 µM: inhibitor at 10 µM
Protocol: (§1) Once compounds 7 and 8 were synthesized, a pairwise comparison was performed to strictly evaluate the real impact of this fragment-hopping where imidazopyridazine is replaced by triazolopyridine.

RPS6KA1 = RPS6KA1 (Homo sapiens, UniProt Q15418); test: as above
Protocol: as §1

AKT1 = AKT1 (Homo sapiens, UniProt P31749); test: as above; conditions: read-out: AKT1 percentage of inhibition
Protocol: as §1

B-RAF-V600E = B-RAF-V600E (Homo sapiens, UniProt P15056, V600E); test: as above
Protocol: as §1

IGF1-R = IGF1-R (Homo sapiens, UniProt P08069); test: as above; conditions: read-out: IGF1-R percentage of inhibition
Protocol: as §1

JAK2 = JAK2 (Homo sapiens, UniProt O60674); test: as above; conditions: average of two data points, read-out: JAK2 percentage of inhibition; for inhibition at 10 µM: inhibitor at 10 µM
Protocol: as §1

FGF-R1 = FGF-R1 (Homo sapiens, UniProt P11362); test: as above; conditions: for inhibition at 10 µM: inhibitor at 10 µM
Protocol: as §1

MET = MET (Homo sapiens, UniProt P08581); test: as above; conditions: read-out: MET percentage of inhibition
Protocol: as §1

PDGFR-α = PDGFR-α (Homo sapiens, UniProt P16234); test: as above
Protocol: as §1

EGF-R = EGF-R (Homo sapiens, UniProt P00533); test: as above
Protocol: as §1

SGK1 = target: T1, SGK1 (Homo sapiens, UniProt O00141); test: as above; conditions: for inhibition at 10 µM: inhibitor at 10 µM
T1 sequence (O00141 1-431): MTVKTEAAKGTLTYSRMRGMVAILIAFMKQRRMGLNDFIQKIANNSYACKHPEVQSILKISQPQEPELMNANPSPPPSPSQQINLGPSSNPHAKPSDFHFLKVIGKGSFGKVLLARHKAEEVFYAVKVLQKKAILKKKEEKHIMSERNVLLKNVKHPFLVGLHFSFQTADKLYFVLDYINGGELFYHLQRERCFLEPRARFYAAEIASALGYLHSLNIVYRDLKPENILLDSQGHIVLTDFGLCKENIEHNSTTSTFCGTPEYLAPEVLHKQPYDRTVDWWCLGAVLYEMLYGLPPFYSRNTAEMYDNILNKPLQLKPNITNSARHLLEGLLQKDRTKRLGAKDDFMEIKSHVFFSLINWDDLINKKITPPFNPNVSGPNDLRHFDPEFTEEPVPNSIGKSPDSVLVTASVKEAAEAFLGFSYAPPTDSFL
Protocol: as §1

CK1-α1 = CK1-α1 (Homo sapiens, UniProt P48729); test: as above; conditions: for inhibition at 10 µM: inhibitor at 10 µM
Protocol: as §1

ARK5 = target: T2, ARK5 (Homo sapiens, UniProt O60285); test: as above
T2 sequence (O60285 1-661): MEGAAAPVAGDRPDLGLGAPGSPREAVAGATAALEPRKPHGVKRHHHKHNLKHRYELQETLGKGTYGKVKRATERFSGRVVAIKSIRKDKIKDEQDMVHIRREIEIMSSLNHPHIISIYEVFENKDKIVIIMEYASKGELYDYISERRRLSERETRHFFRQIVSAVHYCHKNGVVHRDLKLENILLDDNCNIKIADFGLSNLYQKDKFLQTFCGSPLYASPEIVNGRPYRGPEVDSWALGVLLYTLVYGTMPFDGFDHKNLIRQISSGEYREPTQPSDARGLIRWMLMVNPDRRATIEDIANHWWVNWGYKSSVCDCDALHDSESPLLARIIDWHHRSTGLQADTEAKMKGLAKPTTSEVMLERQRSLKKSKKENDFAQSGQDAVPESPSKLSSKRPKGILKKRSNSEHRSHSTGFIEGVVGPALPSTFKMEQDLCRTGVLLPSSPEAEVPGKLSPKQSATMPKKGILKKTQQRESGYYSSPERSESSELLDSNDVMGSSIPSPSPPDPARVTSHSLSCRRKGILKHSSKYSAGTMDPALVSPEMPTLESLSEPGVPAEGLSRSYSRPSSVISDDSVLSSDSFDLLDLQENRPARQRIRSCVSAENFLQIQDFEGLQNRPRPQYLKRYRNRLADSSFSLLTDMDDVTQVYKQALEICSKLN
Protocol: as §1

PAK1 = PAK1 (Homo sapiens, UniProt Q13153); test: as above; conditions: read-out: PAK1 percentage of inhibition
Protocol: as §1

PIM-3 = PIM-3 (Homo sapiens, UniProt Q86V86); test: PIM-3 kinase ADP Hunter Plus assay; conditions: 100 µM ATP
Protocol: Kinase activity was measured with the commercial ADP Hunter™ Plus assay (DiscoveRx Ref. #33-016), a homogeneous assay measuring ADP accumulation, as a universal product of kinase activity. The assay was conducted following the manufacturer’s recommendations and adapting the protein and substrate concentrations for optimal conditions. The kinase assay buffer was 15 mM HEPES, pH 7.4, 20 mM NaCl, 1 mM EGTA, 0.02% Tween-20, 10 mM MgCl2 and 0.1 mg/ml BGG (bovine γ-globulin). All PIM kinase assays were performed with 100 µM PIMtide ([…]) as the peptide substrate and 100 µM ATP. The protein concentrations were 50, 350 and 500 ng/µl for PIM-1, 2 and 3, respectively. To calculate the IC50 of the ETP-compounds, serial 1∶5 dilutions were prepared and the reaction was started with the addition of ATP. The reaction was incubated for 1 h at 25°C. Reagents A and B (DiscoveRx) were sequentially added to the wells, and the plates were incubated for 30 min at 37°C. Fluorescence counts were read in a Victor instrument (Perkin Elmer) with the recommended settings (544 and 580 nm as the excitation and emission wavelengths, respectively). Values were plotted against the inhibitor concentrations and fit to a sigmoid dose–response curve using GraphPad software.

[1] = average of two data points, read-out: DYRK1A percentage of inhibition
[2] = average of two data points, read-out: FGF-R1 percentage of inhibition
[3] = average of two data points, read-out: SGK1 percentage of inhibition
[4] = average of two data points, read-out: CK1-α1 percentage of inhibition
[5] = inhibitor at 5 µM, average of two data points
[6] = compound 8 (5 µM) versus compound 3 (10 µM)
[7] = compound 8 (5 µM) vs compound 3 (10 µM)
[8] = compound 7 vs compound 1, 10 µM
[9] = inhibitor at 10 µM, average of two data points

B-RAF-V600E, sequence (P15056 whole entry V600E): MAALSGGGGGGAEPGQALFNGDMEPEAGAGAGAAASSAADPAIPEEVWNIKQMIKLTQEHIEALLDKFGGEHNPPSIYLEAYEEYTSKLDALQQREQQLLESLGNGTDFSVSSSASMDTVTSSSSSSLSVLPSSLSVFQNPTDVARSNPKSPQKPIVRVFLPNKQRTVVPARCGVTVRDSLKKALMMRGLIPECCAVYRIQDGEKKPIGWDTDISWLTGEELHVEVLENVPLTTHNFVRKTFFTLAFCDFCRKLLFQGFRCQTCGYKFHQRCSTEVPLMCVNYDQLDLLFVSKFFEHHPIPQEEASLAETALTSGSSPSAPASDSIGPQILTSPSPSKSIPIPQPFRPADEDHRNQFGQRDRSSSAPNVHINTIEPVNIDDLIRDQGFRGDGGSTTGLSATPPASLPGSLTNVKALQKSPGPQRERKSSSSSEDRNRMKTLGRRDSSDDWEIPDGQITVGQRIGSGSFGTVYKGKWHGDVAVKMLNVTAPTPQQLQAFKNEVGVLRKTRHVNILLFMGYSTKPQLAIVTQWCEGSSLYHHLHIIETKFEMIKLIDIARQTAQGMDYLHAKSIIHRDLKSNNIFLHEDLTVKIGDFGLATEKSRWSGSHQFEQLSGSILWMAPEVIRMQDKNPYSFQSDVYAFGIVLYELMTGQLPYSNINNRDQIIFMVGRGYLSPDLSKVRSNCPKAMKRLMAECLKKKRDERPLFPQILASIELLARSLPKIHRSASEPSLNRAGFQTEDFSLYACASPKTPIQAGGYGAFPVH
PDGFR-α, sequence (P16234 24-1089, species assumed): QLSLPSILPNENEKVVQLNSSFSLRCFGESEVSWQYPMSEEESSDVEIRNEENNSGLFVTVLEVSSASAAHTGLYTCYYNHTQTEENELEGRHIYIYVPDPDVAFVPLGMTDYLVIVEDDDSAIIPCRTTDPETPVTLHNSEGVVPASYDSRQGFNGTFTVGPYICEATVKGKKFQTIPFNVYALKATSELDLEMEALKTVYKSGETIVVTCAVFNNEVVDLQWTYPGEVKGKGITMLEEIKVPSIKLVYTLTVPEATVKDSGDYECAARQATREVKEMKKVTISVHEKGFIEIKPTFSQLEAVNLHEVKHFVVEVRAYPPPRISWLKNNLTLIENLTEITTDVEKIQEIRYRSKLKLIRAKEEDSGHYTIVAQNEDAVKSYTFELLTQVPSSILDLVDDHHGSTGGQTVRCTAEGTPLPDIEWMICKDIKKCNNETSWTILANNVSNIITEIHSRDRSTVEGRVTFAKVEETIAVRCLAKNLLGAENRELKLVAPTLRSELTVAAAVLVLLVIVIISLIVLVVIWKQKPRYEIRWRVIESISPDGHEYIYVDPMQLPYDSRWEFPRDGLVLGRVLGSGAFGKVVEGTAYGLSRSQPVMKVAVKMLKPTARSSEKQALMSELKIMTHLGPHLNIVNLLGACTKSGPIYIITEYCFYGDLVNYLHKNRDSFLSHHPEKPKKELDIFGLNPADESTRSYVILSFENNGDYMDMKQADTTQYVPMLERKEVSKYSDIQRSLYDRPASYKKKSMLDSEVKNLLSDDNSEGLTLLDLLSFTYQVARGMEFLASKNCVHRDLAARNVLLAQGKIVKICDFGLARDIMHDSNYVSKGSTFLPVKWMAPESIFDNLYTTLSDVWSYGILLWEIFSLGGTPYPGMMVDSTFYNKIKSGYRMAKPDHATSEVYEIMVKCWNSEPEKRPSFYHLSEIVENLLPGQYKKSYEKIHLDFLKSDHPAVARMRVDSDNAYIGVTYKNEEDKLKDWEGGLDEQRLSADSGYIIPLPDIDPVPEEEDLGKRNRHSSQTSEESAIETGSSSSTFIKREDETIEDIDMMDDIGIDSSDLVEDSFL
IGF1-R, sequence (P08069 31-1367, species assumed): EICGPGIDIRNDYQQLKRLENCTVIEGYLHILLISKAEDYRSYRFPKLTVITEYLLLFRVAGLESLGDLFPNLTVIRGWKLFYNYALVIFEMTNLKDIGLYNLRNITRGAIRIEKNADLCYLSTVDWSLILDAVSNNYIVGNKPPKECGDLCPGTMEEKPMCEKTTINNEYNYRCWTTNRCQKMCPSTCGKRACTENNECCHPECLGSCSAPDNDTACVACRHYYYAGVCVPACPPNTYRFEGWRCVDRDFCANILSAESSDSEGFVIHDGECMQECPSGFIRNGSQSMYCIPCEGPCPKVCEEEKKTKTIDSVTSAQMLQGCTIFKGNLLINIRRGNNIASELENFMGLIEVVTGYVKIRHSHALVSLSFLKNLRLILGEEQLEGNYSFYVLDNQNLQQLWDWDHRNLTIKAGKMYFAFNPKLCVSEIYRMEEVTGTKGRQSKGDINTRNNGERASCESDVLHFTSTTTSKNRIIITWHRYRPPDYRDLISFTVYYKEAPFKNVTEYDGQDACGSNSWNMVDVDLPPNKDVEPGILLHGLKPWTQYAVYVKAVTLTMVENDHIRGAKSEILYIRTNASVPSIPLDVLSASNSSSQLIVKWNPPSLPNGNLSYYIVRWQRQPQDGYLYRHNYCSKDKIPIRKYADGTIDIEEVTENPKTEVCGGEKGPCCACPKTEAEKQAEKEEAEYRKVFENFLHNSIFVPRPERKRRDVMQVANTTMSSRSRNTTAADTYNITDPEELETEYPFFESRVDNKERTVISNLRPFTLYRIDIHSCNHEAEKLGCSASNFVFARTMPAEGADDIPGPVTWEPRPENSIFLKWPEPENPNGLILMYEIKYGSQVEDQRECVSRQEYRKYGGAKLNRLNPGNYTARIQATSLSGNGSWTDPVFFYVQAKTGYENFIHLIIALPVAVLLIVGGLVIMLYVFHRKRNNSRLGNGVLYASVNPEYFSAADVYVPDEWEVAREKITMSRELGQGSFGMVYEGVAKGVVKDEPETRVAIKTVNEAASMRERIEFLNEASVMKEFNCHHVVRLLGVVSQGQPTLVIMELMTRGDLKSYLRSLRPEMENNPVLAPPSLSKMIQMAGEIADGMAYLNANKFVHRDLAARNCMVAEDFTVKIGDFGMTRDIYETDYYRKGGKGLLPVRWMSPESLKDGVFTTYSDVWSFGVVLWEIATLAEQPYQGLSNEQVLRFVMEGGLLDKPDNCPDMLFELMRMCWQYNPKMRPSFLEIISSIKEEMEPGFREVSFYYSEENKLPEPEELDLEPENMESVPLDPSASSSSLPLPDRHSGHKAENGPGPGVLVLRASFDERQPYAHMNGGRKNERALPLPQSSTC
EGF-R, sequence (P00533 25-1210, species assumed): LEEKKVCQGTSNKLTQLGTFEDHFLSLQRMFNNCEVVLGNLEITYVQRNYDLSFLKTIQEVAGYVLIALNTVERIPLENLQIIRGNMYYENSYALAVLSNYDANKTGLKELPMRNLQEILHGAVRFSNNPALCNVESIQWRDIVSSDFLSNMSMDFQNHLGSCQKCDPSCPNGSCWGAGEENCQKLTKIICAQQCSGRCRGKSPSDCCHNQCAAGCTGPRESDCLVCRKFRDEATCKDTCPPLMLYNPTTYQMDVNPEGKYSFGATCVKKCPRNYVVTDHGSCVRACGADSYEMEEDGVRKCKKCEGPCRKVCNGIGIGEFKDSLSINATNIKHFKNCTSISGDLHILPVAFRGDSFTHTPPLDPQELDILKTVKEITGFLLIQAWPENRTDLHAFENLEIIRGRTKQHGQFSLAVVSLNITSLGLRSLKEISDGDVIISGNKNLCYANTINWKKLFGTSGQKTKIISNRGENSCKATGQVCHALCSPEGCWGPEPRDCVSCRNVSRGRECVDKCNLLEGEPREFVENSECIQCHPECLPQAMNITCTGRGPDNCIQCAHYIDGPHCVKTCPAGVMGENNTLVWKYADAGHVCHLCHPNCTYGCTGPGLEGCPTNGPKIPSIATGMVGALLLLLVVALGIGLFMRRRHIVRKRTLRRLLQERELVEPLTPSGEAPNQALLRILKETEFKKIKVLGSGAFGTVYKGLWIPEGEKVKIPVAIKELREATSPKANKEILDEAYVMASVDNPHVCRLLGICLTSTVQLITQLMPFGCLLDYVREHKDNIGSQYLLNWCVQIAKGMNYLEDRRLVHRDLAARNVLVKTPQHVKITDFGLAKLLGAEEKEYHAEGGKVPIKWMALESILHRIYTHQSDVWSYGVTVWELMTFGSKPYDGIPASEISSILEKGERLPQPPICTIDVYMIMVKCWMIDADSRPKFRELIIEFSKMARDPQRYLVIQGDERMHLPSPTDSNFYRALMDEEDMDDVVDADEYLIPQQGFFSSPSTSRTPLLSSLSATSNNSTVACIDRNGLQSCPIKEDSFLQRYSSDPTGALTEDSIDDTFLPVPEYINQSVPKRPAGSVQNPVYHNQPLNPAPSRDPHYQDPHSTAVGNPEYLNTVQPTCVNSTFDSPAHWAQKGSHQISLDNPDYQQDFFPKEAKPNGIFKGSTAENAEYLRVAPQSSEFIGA
CK1-α1, sequence (P48729 whole entry): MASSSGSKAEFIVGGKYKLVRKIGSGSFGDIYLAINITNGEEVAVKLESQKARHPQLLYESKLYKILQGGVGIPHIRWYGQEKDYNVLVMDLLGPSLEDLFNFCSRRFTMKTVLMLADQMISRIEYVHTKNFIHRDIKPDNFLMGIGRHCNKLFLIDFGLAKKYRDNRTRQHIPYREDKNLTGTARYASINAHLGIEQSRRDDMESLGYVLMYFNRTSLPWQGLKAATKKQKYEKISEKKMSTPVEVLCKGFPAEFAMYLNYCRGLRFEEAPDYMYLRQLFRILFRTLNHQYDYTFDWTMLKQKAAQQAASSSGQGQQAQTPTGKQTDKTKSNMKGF

SMILES: CN1CCC(CNc2ccc3ncc(-c4cccc(OC(F)(F)F)c4)n3n2)CC1 [Compound 3, reference compound]
- inhibition at 10 µM (DYRK1A; [1]): 19%
- inhibition at 10 µM (RPS6KA1; read-out: RPS6KA1 percentage of inhibition): 48%
- inhibition at 10 µM (AKT1): 0%
- inhibition at 10 µM (B-RAF-V600E; read-out: B-RAF-V600E percentage of inhibition): 41%
- inhibition at 10 µM (IGF1-R): 53%
- inhibition at 10 µM (JAK2): 3%
- inhibition at 10 µM (FGF-R1; [2]): 65%
- inhibition at 10 µM (MET): 12%
- inhibition at 10 µM (PDGFR-α; read-out: PDGFR-α percentage of inhibition): 92%
- inhibition at 10 µM (EGF-R; read-out: EGF-R percentage of inhibition): 32%
- inhibition at 10 µM (SGK1; [3]): 55%
- inhibition at 10 µM (CK1-α1; [4]): 0%
- inhibition at 10 µM (ARK5; read-out: ARK5 percentage of inhibition): 42%
- inhibition at 5 µM (PAK1): 8%
- IC50 (PIM-3): 0.046 µM

SMILES: CN1CCC(CNc2ccc3nnn(-c4cccc(OC(F)(F)F)c4)c3n2)CC1 [Compound 8, (1-Methyl-piperidin-4-ylmethyl)-[3-(3-trifluoromethoxy-phenyl)-3H-[1], [2], [3]triazolo[4,5-b]pyridin-5-yl]-amine]
- inhibition at 5 µM (DYRK1A; inhibitor at 5 µM, average of two data points, read-out: DYRK1A percentage of inhibition): 3%
- inhibition at 5 µM (RPS6KA1; inhibitor at 5 µM, average of two data points, read-out: RPS6KA1 percentage of inhibition): 37%
- inhibition at 5 µM (AKT1; [5]): 0%
- inhibition at 5 µM (B-RAF-V600E; inhibitor at 5 µM, average of two data points, read-out: B-RAF-V600E percentage of inhibition): 10%
- inhibition at 5 µM (IGF1-R; [5]): 25%
- inhibition at 5 µM (JAK2; inhibitor at 5 µM): 0%
- inhibition at 5 µM (FGF-R1; inhibitor at 5 µM, average of two data points, read-out: FGF-R1 percentage of inhibition): 16%
- inhibition at 5 µM (MET; [5]): 6%
- PDGFR-α increment in percentage of inhibition (PDGFR-α; [6]): > 50%
- PDGFR-α improvement in percentage of inhibition (PDGFR-α; [7]): c (This designation indicates that the improvement in percentage of inhibition was greater than 50%)
- inhibition at 5 µM (PDGFR-α; inhibitor at 5 µM, average of two data points, read-out: PDGFR-α percentage of inhibition): 20%
- inhibition at 5 µM (EGF-R; inhibitor at 5 µM, average of two data points, read-out: EGF-R percentage of inhibition): 18%
- SGK1 increment in percentage of inhibition (SGK1; [6]): > 50%
- SGK1 improvement in percentage of inhibition (SGK1; [7]): c (This designation indicates that the improvement in percentage of inhibition was greater than 50%)
- inhibition at 5 µM (SGK1; inhibitor at 5 µM, average of two data points, read-out: SGK1 percentage of inhibition): 0%
- inhibition at 5 µM (CK1-α1; inhibitor at 5 µM, average of two data points, read-out: CK1-α1 percentage of inhibition): 8%
- inhibition at 5 µM (ARK5; inhibitor at 5 µM, average of two data points, read-out: ARK5 percentage of inhibition): 18%
- inhibition at 5 µM (PAK1; [5]): 2%
- IC50 (PIM-3): 0.724 µM

SMILES: Oc1ccc(-n2nnc3ccc(NCc4ccc(F)cc4)nc32)cc1 [Compound 7, 4-[5-(4-Fluoro-benzylamino)-[1], [2], [3]triazolo[4,5-b]pyridin-3-yl]-phenol]
- DYRK1A reduction of percentage of inhibition (DYRK1A; compound 7 compared to compound 1, 10 µM): more than 25%
- DYRK1A improvement in percentage of inhibition (DYRK1A; [8]): b (This designation indicates that the improvement in percentage of inhibition was equal or greater than 25%)
- inhibition at 10 µM (DYRK1A; [1]): > 70%
- RPS6KA1 improvement in percentage of inhibition (RPS6KA1; [8]): c (This designation indicates that the improvement in percentage of inhibition was equal or greater than 50%)
- inhibition at 10 µM (RPS6KA1; inhibitor at 10 µM, average of two data points, read-out: RPS6KA1 percentage of inhibition): 45%
- inhibition at 10 µM (AKT1; [9]): 0%
- B-RAF-V600E improvement in percentage of inhibition (B-RAF-V600E; [8]): b (This designation indicates that the improvement in percentage of inhibition was equal or greater than 25%)
- inhibition at 10 µM (B-RAF-V600E; inhibitor at 10 µM, average of two data points, read-out: B-RAF-V600E percentage of inhibition): 8%
- inhibition at 10 µM (IGF1-R; [9]): 9%
- inhibition at 10 µM (JAK2): 30%
- FGF-R1 improvement in percentage of inhibition (FGF-R1; [8]): c (This designation indicates that the improvement in percentage of inhibition was equal or greater than 50%)
- inhibition at 10 µM (FGF-R1; [2]): 19%
- inhibition at 10 µM (MET; [9]): 21%
- PDGFR-α improvement in percentage of inhibition (PDGFR-α; [8]): b (This designation indicates that the improvement in percentage of inhibition was equal or greater than 25%)
- inhibition at 10 µM (PDGFR-α; inhibitor at 10 µM, average of two data points, read-out: PDGFR-α percentage of inhibition): 53%
- EGF-R improvement in percentage of inhibition (EGF-R; [8]): b (This designation indicates that the improvement in percentage of inhibition was equal or greater than 25%)
- inhibition at 10 µM (EGF-R; inhibitor at 10 µM, average of two data points, read-out: EGF-R percentage of inhibition): 8%
- SGK1 improvement in percentage of inhibition (SGK1; [8]): c (This designation indicates that the improvement in percentage of inhibition was equal or greater than 50%)
- inhibition at 10 µM (SGK1; [3]): 12%
- CK1-α1 improvement in percentage of inhibition (CK1-α1; [8]): b (This designation indicates that the improvement in percentage of inhibition was equal or greater than 25%)
- inhibition at 10 µM (CK1-α1; [4]): 8%
- ARK5 improvement in percentage of inhibition (ARK5; [8]): c (This designation indicates that the improvement in percentage of inhibition was equal or greater than 50%)
- inhibition at 10 µM (ARK5; inhibitor at 10 µM, average of two data points, read-out: ARK5 percentage of inhibition): 13%
- inhibition at 10 µM (PAK1; [9]): 5%
- IC50 (PIM-3): 0.051 µM
